Results as given in patent publication US20100041712A1, “SUBSTITUTED IMIDAZOLE COMBINATIONS” (PFIZER INC., priority 2008, published 2010).

System: Ctenocephalides felis
Assay: In-vivo study: topical spot-on formulations on beagle dogs infested with fleas on Day 30
Conditions: compound alone, 30 mg/kg topical, Day 30 infestation (Table 1)
Experimental: In-vivo studies were conducted in compliance with International Cooperation on Harmonisation of Technical Requirements for Registration of Veterinary Products (VICH) and Good Clinical Practice (GCP) principles and practices.
In one in-vivo study, topical spot-on formulations were prepared using dipropylene glycol monomethyl ether (DPGMME) and ethanol (80:20% v/v) and butylated hydroxyl anisol (BHA) 0.1% w/v. Control was vehicle. Treatment T02 was 30 mg/kg (150 mg/mL) compound (1A1); T03 was 20 mg/kg (100 mg/mL) compound (1A1), 6.7 mg/kg (33.5 mg/mL) fipronil, and 6 mg/kg (30 mg/mL) s-methoprene; T04 was 30 mg/kg (150 mg/mL) compound (1A1), 6.7 mg/kg (50.4 mg/mL) fipronil, and 6 mg/kg (45 mg/mL) s-methoprene; and T05 was 30 mg/kg (150 mg/mL) compound (1A1), 6.7 mg/kg (33.5 mg/mL) fipronil and 6 mg/kg (30 mg/mL) s-methoprene. A total of 40 beagle dogs (8 dogs/treatment group) were used. Dogs were individually housed. Treatments were administered on Day 0. On Day 30, dogs were infested with 100 Ctenocephalides felis unfed adult fleas. Dead and non-moving fleas were counted at 24 and 48 hours after infestation (Table 1).

Cc1cccc([C@H](C)c2ncc[nH]2)c1C [compound (1A1), 2-[(1S)-1-(2,3-dimethylphenyl)ethyl]-1H-imidazole]
intrinsic flea activity: lacks intrinsic flea activity
